ChEMBL document CHEMBL4840379, “RIBOTACs: Small Molecules Selectively Destroy Cancer-Associated RNA” (ACS Med Chem Lett, 2021)
Active and inactive are the calls of the source. The rule behind the calls is not given here.

Assays:
[1] = Turnovers, ratio of RIBOTAC activity at Pre-miR-21 RNA/RNase L in human MDA-MB-231 cells assessed as decrease in pre-miR-21 level by measuring cleaved pre-miR-21 level at 500 nM incubated for 24 hrs […] to drug concentration in human MDA-MB-231 cells; assay type: functional
A549 = assay: Antiinvasive activity in human A549 cells assessed as decrease in pre-miR-21 overexpression induced invasion at 500 nM incubated for 24 hrs […]; assay type: functional, cell-based
microRNA 21 = assay: RIBOTAC activity at Pre-miR-21 RNA/RNase L in human MDA-MB-231 cells assessed as decrease in pre-miR-21 level by measuring cleaved pre-miR-21 level at 500 nM incubated for 24 hrs […]; assay type: cell-based
A-375 = assay: Antiinvasive activity in human A-375 cells assessed as decrease in pre-miR-21 overexpression induced invasion at 500 nM incubated for 24 hrs […]; assay type: functional, cell-based
[2] = Drug uptake in human MDA-MB-231 cells assessed as compound level at 500 nM incubated for 24 hrs; assay type: ADME, cell-based; details: mda-mb-231, 24 h, 0.5 µM

Drug uptake [2]: 2.6 pmol
Compound: CCCN(CC(=O)N(CCC)CC(=O)N(CCC)CC(=O)N(CC(=O)NCCOCCOCCOCCOc1ccc(/C=C2\SC(Nc3ccccc3)=C(C(=O)OCC)C2=O)cc1O)Cc1cn(CCCNC(=O)CCCOc2ccc(-c3nc4ccc(-c5ccc(N6CCN(C)CC6)cc5)cc4[nH]3)cc2)nn1)C(=O)CN(Cc1cn(CCCNC(=O)CCCOc2ccc(-c3nc4cc(-c5ccc(N6CCN(C)CC6)cc5)ccc4[nH]3)cc2)nn1)C(C)=O
Ratio [1]: 26
Activity (A549): Active
Activity (microRNA 21): 68 pmol
Activity (A-375): Active
